Laboratory results taken from US20190100534A1, “Cephem Compounds with Latent Reactive Groups” (Gladius Pharmaceuticals, Inc., priority 2017, published 2019).

Experiments:
Assay in all cases: MIC determination
Format in all cases: cell-based
[1] = system: Pseudomonas aeruginosa PA-RR-(G7305586); details: Pseudomonas aeruginosa; PA-RR-(G7305586); CAMH broth, 20 μM Apo-Transferrin, 37° C., 18 hours; read-out: Minimum Inhibitory Concentrations, PA-RR-(G7305586)
Outline: (§1)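 Growth inhibition was judged by well clarity after 18 h at 37 °C in transferrin-supplemented (20 μM apo form) CAMH. Standardized suspensions (0.08-0.1 OD600) were added within 30 min of preparation.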

[2] = system: Pseudomonas aeruginosa PA-RR-(980151052); details: Pseudomonas aeruginosa; PA-RR-(980151052); CAMH broth, 20 μM Apo-Transferrin, 37° C., 18 hours; read-out: Minimum Inhibitory Concentrations, PA-RR-(980151052)
Outline: as §1

[3] = system: Pseudomonas aeruginosa PA (RR-2); details: Pseudomonas aeruginosa; PA (RR-2); CAMH broth, 20 μM Apo-Transferrin, 37° C., 18 hours; read-out: Minimum Inhibitory Concentrations, PA (RR-2)
Outline: as §1

[4] = system: Pseudomonas aeruginosa PA-RR-(purple Fre D); details: Pseudomonas aeruginosa, CAMH broth, 20 μM Apo-Transferrin, 37° C., 18 hours, read-out: Minimum Inhibitory Concentrations, PA-RR-(purple Fre D)
Outline: as §1

[5] = system: Pseudomonas aeruginosa PA (URMC-2); details: Pseudomonas aeruginosa; PA (URMC-2); CAMH broth, 20 μM Apo-Transferrin, 37° C., 18 hours; read-out: Minimum Inhibitory Concentrations, PA (URMC-2)
Outline: as §1

[6] = system: Pseudomonas aeruginosa PA-RR-(98023895); details: Pseudomonas aeruginosa; PA-RR-(98023895); CAMH broth, 20 μM Apo-Transferrin, 37° C., 18 hours; read-out: Minimum Inhibitory Concentrations, PA-RR-(98023895)
Outline: as §1

SMILES | MIC [1] [µg/mL] | MIC [2] [µg/mL] | MIC [3] [µg/mL] | MIC [4] [µg/mL] | MIC [5] [µg/mL] | MIC [6] [µg/mL]
Cn1c[n+](Cc2ccc(C=CC3=C(C(=O)O)N4C(=O)[C@@H](NC(=O)/C(=N\OC(C)(C)C(=O)O)c5csc(N)n5)[C@H]4SC3)cc2)cc1C(=O)Nc1ccc(O)c(O)c1 (mixture of isomers) [Compound 411, 3-(4-((E/Z)-2-((6R,7R)-7-((Z)-2-(2-aminothiazol-4-yl)-2-(((2-carboxypropan-2-yl)oxy)imino)acetamido)-2-carboxy-8-oxo-5-thia-1-azabicyclo[4.2.0]oct-2-en-3-yl)vinyl)benzyl)-5-((3,4-dihydroxyphenyl)carbamoyl)-1-methyl-1H-imidazol-3-ium] | 16 | 8 | 4 | 2 | 4 | 8
CC(C)(O/N=C(\C(=O)N[C@@H]1C(=O)N2C(C(=O)O)=C(C=Cc3ccc(C[n+]4cccc(-c5ccc(O)c(O)c5)c4)cc3)CS[C@H]12)c1csc(N)n1)C(=O)O (mixture of isomers) [Compound 413, 1-(4-((E/Z)-2-((6R,7R)-7-((Z)-2-(2-aminothiazol-4-yl)-2-(((2-carboxypropan-2-yl)oxy)imino)acetamido)-2-carboxy-8-oxo-5-thia-1-azabicyclo[4.2.0]oct-2-en-3 yl)vinyl)benzyl)-3-(3,4-dihydroxyphenyl)pyridin-1-ium] | 8 | 4 | 2 | 2 | 4 | 4
Cc1c[n+](Cc2ccc(C=CC3=C(C(=O)O)N4C(=O)[C@@H](NC(=O)/C(=N\OC(C)(C)C(=O)O)c5csc(N)n5)[C@H]4SC3)cc2)ccc1-c1ccc(O)c(O)c1 (mixture of isomers) [Compound 422, 1-(4-((E/Z)-2-((6R,7R)-7-((Z)-2-(2-aminothiazol-4-yl)-2-(((2-carboxypropan-2-yl)oxy)imino)acetamido)-2-carboxy-8-oxo-5-thia-1-azabicyclo[4.2.0]oct-2-en-3-yl)vinyl)benzyl)-4-(3,4-dihydroxyphenyl)-3-methylpyridin-1-ium] | 16 | 8 | 2 | 1 | 4 | 8
CC(C)(O/N=C(\C(=O)N[C@@H]1C(=O)N2C(C(=O)O)=C(C=Cc3ccc(C[N+]4(C)Cc5cc(O)c(O)cc5C4)cc3)CS[C@H]12)c1csc(N)n1)C(=O)O (mixture of isomers) [Compound 424, 2-(4-((E/Z)-2-((6R,7R)-7-((Z)-2-(2-aminothiazol-4-yl)-2-(((2-carboxypropan-2-yl)oxy)imino)acetamido)-2-carboxy-8-oxo-5-thia-1-azabicyclo[4.2.0]oct-2-en-3-yl)vinyl)benzyl)-5,6-dihydroxy-2-methylisoindolin-2-ium] | 8 | 4 | 4 | 2 | 4 | 8
CC(C)(O/N=C(\C(=O)N[C@@H]1C(=O)N2C(C(=O)O)=C(C=Cc3ccc(C[N+](C)(C)Cc4ccc(O)c(O)c4)cc3)CS[C@H]12)c1csc(N)n1)C(=O)O (mixture of isomers) [Compound 426, N-(4-((E/Z)-2-((6R,7R)-7-((Z)-2-(2-aminothiazol-4-yl)-2-(((2-carboxypropan-2-yl)oxy)imino)acetamido)-2-carboxy-8-oxo-5-thia-1-azabicyclo[4.2.0]oct-2-en-3-yl)vinyl)benzyl)-1-(3,4-dihydroxyphenyl)-N,N-dimethylmethanaminium] | 4 | 4 | 2 | 1 | 4 | 8
CC(C)(O/N=C(\C(=O)N[C@@H]1C(=O)N2C(C(=O)O)=C(C=Cc3ccc(C[n+]4ccc(NC(=O)c5ccc(O)c(O)c5)cc4)cc3)CS[C@H]12)c1csc(N)n1)C(=O)O (mixture of isomers) [Compound 427, 1-(4-((E/Z)-2-((6R,7R)-7-((Z)-2-(2-aminothiazol-4-yl)-2-(((2-carboxypropan-2-yl)oxy)imino)acetamido)-2-carboxy-8-oxo-5-thia-1-azabicyclo[4.2.0]oct-2-en-3-yl)vinyl)benzyl)-4-(3,4-dihydroxybenzamido)pyridin-1-ium] | 8 | 0.5 | ≤ 0.06 | 0.25 | 0.06 | 4
CC(C)(O/N=C(\C(=O)N[C@@H]1C(=O)N2C(C(=O)O)=C(C=Cc3ccc(C[N+](C)(C)Cc4ccc(O)c(O)c4Cl)cc3)CS[C@H]12)c1csc(N)n1)C(=O)O (mixture of isomers) [Compound 434, N-(4-((E/Z)-2-((6R,7R)-7-((Z)-2-(2-aminothiazol-4-yl)-2-(((2-carboxypropan-2-yl)oxy)imino)acetamido)-2-carboxy-8-oxo-5-thia-1-azabicyclo[4.2.0]oct-2-en-3-yl)vinyl)benzyl)-1-(2-chloro-3,4-dihydroxyphenyl)-N,N-dimethylmethanaminium] | 8 | 4 | 2 | 2 | 8 | 8
CC(C)(O/N=C(\C(=O)N[C@@H]1C(=O)N2C(C(=O)O)=C(C=Cc3ccc(C[N+](C)(C)Cc4cc(O)c(O)c(Cl)c4)cc3)CS[C@H]12)c1csc(N)n1)C(=O)O (mixture of isomers) [Compound 436, N-(4-((E/Z)-2-((6R,7R)-7-((Z)-2-(2-aminothiazol-4-yl)-2-(((2-carboxypropan-2-yl)oxy)imino)acetamido)-2-carboxy-8-oxo-5-thia-1-azabicyclo[4.2.0]oct-2-en-3-yl)vinyl)benzyl)-1-(3-chloro-4,5-dihydroxyphenyl)-N,N-dimethylmethanaminium] | 8 | 4 | 4 | 2 | 8 | 4
